This is an account of results in patent US9751885B2, “Cyclopropanamine compound and use thereof” (Takeda Pharmaceutical Company Limited, priority 2012, dated 2017).

In one data set the target is MAO-A enzyme (Homo sapiens (Human), UniProt P21397). As to the kind of experiment: Measurement of MAO-A inhibitory activity (MAO-Glo Assay). It counts as biochemical.
The subject of data set [1] is white blood cell number, red blood cell number, platelet number. Briefly: Evaluation of blood cell number in mouse. It counts as in vivo. The settings on record: oral, Day 2 after administration. In outline:
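Male ICR mice dosed orally at 1, 10, 50 or 100 mg/kg (suspension in 0.5% methylcellulose/0.02% citric acid/water); whole blood collected on Day 2. White cell, red cell and platelet counts per unit volume by automated haematology analyser, expressed as % of mean of untreated control group.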

Another data set addresses MAO-B enzyme (Homo sapiens (Human), UniProt P27338). As to the kind of experiment: Measurement of MAO-B inhibitory activity (MAO-Glo Assay).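 Also: luminescence read-out, compound preincubated 10 min with enzyme then reacted 60 min at room temperature, inhibition relative to enzyme reaction without compound, blank lacking enzyme and compound.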 The settings on record: read-out: MAO-B IC50 value.
The target of another data set is human LSD1(172-833) (Homo sapiens (Human), UniProt O60341). As to the kind of experiment: Measurement of LSD1 inhibitory activity (time-resolved fluorescence, biotin-histone H3 mono methylated K4 peptide). In kind it is biochemical. Summed up: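 Remaining signal detected by TR-FRET after 60 min with europium anti-histone H3 antibody and streptavidin-XL665 in potassium fluoride/0.1% BSA.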

Data set [2] has as its system Gad1 H3K4me2 level in rat primary culture neurons. Briefly: Gad1 H3K4 methylation induction activity in rat primary culture neurons (ChIP-qPCR). It counts as cell-based. The settings on record: Neuron, 72 h, control without compound = 100%. Background: Real-time PCR tracks product formation cycle by cycle.
Data set [3] in a line: Evaluation of hippocampal distribution in mouse. In kind it is in vivo. The settings on record: male ICR mice, 10 mg/kg oral; for concentration at 1 h: 1 hr after administration; for concentration at 0.5 h: 0.5 hr after administration. Summed up: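 Male ICR mice dosed orally at 10 mg/kg as suspension in 0.5% methylcellulose/0.02% citric acid/water. Plasma and hippocampus sampled together at 0.5, 1 or 1.5 h; LC/MS/MS concentrations gave hippocampus/plasma ratio.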

The mark [4] stands for this setting: Rattus norvegicus, read-out: Gad1 H3K4me2 induction activity (%), compound 1 μM, 3 days, rat primary culture neurons.
Setting [5] is: Rattus norvegicus, read-out: Gad1 H3K4me2 induction activity (%), compound 10 μM, 3 days, rat primary culture neurons.
The mark [6] stands for this setting: compound 1 μM, 3 days, rat primary culture neurons, read-out: Gad1 H3K4me2 induction activity (%).
Where [7] appears, read: compound 10 μM, 3 days, rat primary culture neurons, read-out: Gad1 H3K4me2 induction activity (%).
Where [8] appears, read: hippocampus, read-out: hippocampus concentration (mean).
The mark [9] stands for this setting: plasma, read-out: plasma concentration (mean).

Counter-ions that a name gives are not always drawn. Like-named read-outs stand apart in the source and are kept apart here. Marks after values point to notes of the source that are not given here.

Chain of MAO-B enzyme (P27338 whole entry): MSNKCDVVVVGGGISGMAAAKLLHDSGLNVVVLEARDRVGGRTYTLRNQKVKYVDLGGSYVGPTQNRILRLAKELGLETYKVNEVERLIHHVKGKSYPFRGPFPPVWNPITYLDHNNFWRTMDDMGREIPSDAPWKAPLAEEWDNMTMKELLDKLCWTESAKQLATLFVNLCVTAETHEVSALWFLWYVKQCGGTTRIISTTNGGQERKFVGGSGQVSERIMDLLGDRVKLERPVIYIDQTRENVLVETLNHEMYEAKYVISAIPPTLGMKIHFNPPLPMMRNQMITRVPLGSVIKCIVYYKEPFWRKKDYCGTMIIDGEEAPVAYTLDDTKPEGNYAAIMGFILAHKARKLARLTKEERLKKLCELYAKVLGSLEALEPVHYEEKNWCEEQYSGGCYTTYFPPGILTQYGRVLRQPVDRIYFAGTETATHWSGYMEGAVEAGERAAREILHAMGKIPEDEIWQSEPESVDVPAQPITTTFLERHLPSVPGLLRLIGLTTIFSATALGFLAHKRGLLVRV
Chain of MAO-A enzyme (P21397 whole entry): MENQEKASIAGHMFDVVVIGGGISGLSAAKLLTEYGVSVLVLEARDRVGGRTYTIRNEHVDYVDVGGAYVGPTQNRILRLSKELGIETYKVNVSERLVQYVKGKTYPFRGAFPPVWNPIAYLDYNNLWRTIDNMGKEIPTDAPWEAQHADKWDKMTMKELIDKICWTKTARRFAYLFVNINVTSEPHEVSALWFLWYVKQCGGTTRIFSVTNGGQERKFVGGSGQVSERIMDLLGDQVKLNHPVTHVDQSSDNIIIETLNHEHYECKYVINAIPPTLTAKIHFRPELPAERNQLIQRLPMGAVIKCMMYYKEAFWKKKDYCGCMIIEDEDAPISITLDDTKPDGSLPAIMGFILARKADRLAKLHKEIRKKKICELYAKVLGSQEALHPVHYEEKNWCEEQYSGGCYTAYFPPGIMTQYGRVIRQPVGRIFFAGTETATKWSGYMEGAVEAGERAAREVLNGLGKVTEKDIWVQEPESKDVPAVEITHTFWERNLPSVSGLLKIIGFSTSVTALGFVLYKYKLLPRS
Experimental for MAO-B enzyme: The MAO-B inhibitory activity evaluation described below followed the protocol of MAO-Glo (registered trademark) Assay of Promega KK.
A test compound dissolved in 4% DMSO was added by 12.5 μL to 25 μL reaction solution (100 mM HEPES (pH 7.5), 5% glycerol, 10% DMSO) containing 400 ng of MAO-B enzyme (Sigma-Aldrich Co. LLC.), and the mixture was reacted at room temperature for 10 min. […] After reaction at room temperature for 60 min, Luciferine detection reagent (Promega KK) (50 μL) was added to terminate the reaction. After reaction at room temperature for 20 min with stirring, the luminescence was measured by Envision (PerkinElmer). The MAO-B inhibitory rate (%) of the test compound was calculated by the following formula. inhibitory rate(%)=(1−(test compound count−blank)÷(control−blank))×100
The count of the MAO-B enzyme reaction mixture under compound non-addition conditions is indicated as control, and the count under compound non-addition and MAO-B enzyme non-addition conditions is indicated as blank.

Regarding `O=C(Nc1cnn(CC2CC2)c1)c1cccc([C@@H]2C[C@H]2NCC2CC2)c1` (relative stereo) [Example 77, 3-(trans-2-((cyclopropylmethyl)amino)cyclopropyl)-N-(1-(cyclopropylmethyl)-1H-pyrazol-4-yl)benzamide dihydrochloride], the figures for the IC50 on MAO-A enzyme, on MAO-B enzyme and at human LSD1(172-833) were greater than 10 µM, greater than 10 µM and less than 0.1 µM, respectively. Further, the “platelet number, percentage of compound administration group compared to control group, mean” value (“platelet number, percentage” for short) in data set [1] (10 mg/kg) is reported as 99.6%; in data set [1] (100 mg/kg), 96.6%. Further, the “red blood cell number, percentage of compound administration group compared to control group, mean” value (“red blood cell number, percentage” below) is 98.2% in data set [1] (10 mg/kg) and 100.9% in data set [1] (100 mg/kg). Besides, the “white blood cell number, percentage of compound administration group compared to control group, mean” value (“white blood cell number, percentage” for short) in data set [1] (10 mg/kg) amounted to 147.9%; in data set [1] (100 mg/kg) it was 98.2%. The activity at 1 µM in data set [2] (setting [4]) was found to be 165%. The activity at 10 µM in data set [2] (setting [5]) was determined as 163%.
Take `O=C(Nc1ccc(-c2ncccn2)cc1)c1cccc([C@@H]2C[C@H]2NCC2CC2)c1` (relative stereo) [Example 58, 3-(trans-2-((cyclopropylmethyl)amino)cyclopropyl)-N-(4-(pyrimidin-2-yl)phenyl)benzamide dihydrochloride]: the IC50 (as a rule, the concentration at which inhibition is half-maximal) is greater than 10 µM on MAO-A enzyme, greater than 10 µM at MAO-B enzyme and less than 0.1 µM on human LSD1(172-833). Also, the “platelet number, percentage” value in data set [1] (10 mg/kg) is 99.4%; in data set [1] (50 mg/kg) it was 102.9^a %. Also, the “red blood cell number, percentage” value in data set [1] (10 mg/kg) is given as 99.7%; in data set [1] (50 mg/kg), 101.3^a %. Besides, the “white blood cell number, percentage” value is 94.2% in data set [1] (10 mg/kg) and 85.8^a % in data set [1] (50 mg/kg). Besides, in data set [2] (setting [4]), the activity at 1 µM worked out at 126%. For the same compound, the activity at 10 µM in data set [2] (setting [5]) was 116%.
Regarding `Cc1ncc(NC(=O)c2cccc([C@@H]3C[C@H]3NC3CCOCC3)c2)s1` (relative stereo) [Example 212, N-(2-methyl-1,3-thiazol-5-yl)-3-(trans-2-(tetrahydro-2H-pyran-4-ylamino)cyclopropyl)benzamide dihydrochloride], the IC50 was greater than 10 µM against MAO-A enzyme, greater than 10 µM on MAO-B enzyme and less than 0.1 µM against human LSD1(172-833). For the same compound, in data set [2] (setting [6]), the activity at 1 µM came to 201%. In data set [2] (setting [7]), the activity at 10 µM came to 289%.
For `Cc1cc(NC(=O)c2cccc([C@@H]3C[C@H]3NCC3CC3)c2)on1` (relative stereo) [Example 106, 3-(trans-2-((cyclopropylmethyl)amino)cyclopropyl)-N-(3-methyl-1,2-oxazol-5-yl)benzamide hydrochloride], the concentration at 1 h was 107 ng/g in data set [3] (setting [8]) and 33 ng/mL in data set [3] (setting [9]). The 50% inhibitory concentration (IC50) against MAO-A enzyme is greater than 10 µM; at MAO-B enzyme, greater than 10 µM; against human LSD1(172-833), less than 0.1 µM. The “platelet number, percentage” value in data set [1] (10 mg/kg) amounted to 94.6%; in data set [1] (100 mg/kg), 97.2%. Also, the “red blood cell number, percentage” value is reported as 99.4% in data set [1] (10 mg/kg) and 101.9% in data set [1] (100 mg/kg). The figures for the “white blood cell number, percentage” value in data set [1] (10 mg/kg) and in data set [1] (100 mg/kg) were 114.8% and 89.0%, respectively. In addition, the activity at 1 µM in data set [2] (setting [6]) came out at 139%. The activity at 10 µM in data set [2] (setting [7]) is 132%.
For the compound `Cc1nnc(NC(=O)c2ccc(F)c([C@@H]3C[C@H]3NCC3CC3)c2)s1` (relative stereo) [Example 109, 3-(trans-2-((cyclopropylmethyl)amino)cyclopropyl)-4-fluoro-N-(5-methyl-1,3,4-thiadiazol-2-yl)benzamide dihydrochloride], the values for the concentration at 0.5 h in data set [3] (setting [8]) and in data set [3] (setting [9]) were 1610 ng/g and 1250 ng/mL, respectively. The IC50 at MAO-A enzyme was greater than 10 µM; at MAO-B enzyme it was greater than 10 µM; against human LSD1(172-833), less than 0.1 µM. Besides, the “platelet number, percentage” value is recorded as 94.3% in data set [1] (10 mg/kg) and 97.8% in data set [1] (100 mg/kg). Moreover, the results for the “red blood cell number, percentage” value in data set [1] (10 mg/kg) and in data set [1] (100 mg/kg) were 96.3% and 98.2%, respectively. The “white blood cell number, percentage” value in data set [1] (10 mg/kg) was 88.3%; in data set [1] (100 mg/kg), 107.4%. Also, the activity at 1 µM in data set [2] (setting [6]) was determined as 117%. For the same compound, the activity at 10 µM in data set [2] (setting [7]) turned out to be 96%.
